Results as given in ChEMBL document CHEMBL3044928, “Synthesis of 2,4-dihalogenofluorobenzenes and their antimicrobial and antifungal activity studies” (2007).
Converted amounts (≈) assume the structure as drawn. The source made the active and inactive calls. No cut-off for these calls is given here.

Assays:
Type in all cases: functional
Morganella morganii [1] = test: Antibacterial activity against Morganella morganii clinical isolate at 30 ug/disk after 24 hr by disk diffusion method; details: read-out: DIZ
Micrococcus flavus [2] = test: Antibacterial activity against Micrococcus flavus clinical isolate at 5 mg/ml after 24 hr by disk diffusion method; details: read-out: DIZ
Morganella morganii [3] = test: Antibacterial activity against Morganella morganii clinical isolate at 5 mg/ml after 24 hr by disk diffusion method; details: for zone of inhibition at 5000 µg/mL: read-out: DIZ
Escherichia coli [4] = test: Antibacterial activity against Escherichia coli ATCC 27853 at 5 mg/ml after 24 hr by disk diffusion method; details: for zone of inhibition at 5000 µg/mL: read-out: DIZ
Candida albicans [5] = test: Antifungal activity against Candida albicans clinical isolate by NCCLS broth microdilution method
Bacillus cereus [6] = test: Antibacterial activity against Bacillus cereus ATCC 6633 by NCCLS broth microdilution method
Staphylococcus aureus [7] = test: Antibacterial activity against Staphylococcus aureus ATCC 25923 by NCCLS broth microdilution method
Bacillus cereus [8] = test: Ratio of compound to oxacillin activity against Bacillus cereus ATCC 6633
Candida albicans [9] = test: Ratio of compound to ketoconazole activity against Candida albicans
Micrococcus flavus [10] = test: Ratio of compound to tetracycline activity against Micrococcus flavus clinical isolate
Candida albicans [11] = test: Antifungal activity against Candida albicans clinical isolate at 5 mg/ml after 48 hr by disk diffusion method; details: read-out: DIZ
Bacillus cereus [12] = test: Antibacterial activity against Bacillus cereus ATCC 6633 at 5 mg/ml after 24 hr by disk diffusion method; details: ATCC 6633, 24 h, read-out: DIZ
Staphylococcus aureus [13] = test: Antibacterial activity against Staphylococcus aureus ATCC 25923 at 5 mg/ml after 24 hr by disk diffusion method; details: for zone of inhibition at 5000 µg/mL: ATCC 25923, 24 h, read-out: DIZ
Micrococcus flavus [14] = test: Antibacterial activity against Micrococcus flavus clinical isolate by NCCLS broth microdilution method
Morganella morganii [15] = test: Antibacterial activity against Morganella morganii clinical isolate by NCCLS broth microdilution method
Escherichia coli [16] = test: Antibacterial activity against Escherichia coli ATCC 27853 by NCCLS broth microdilution method
Micrococcus flavus [17] = test: Antibacterial activity against Micrococcus flavus clinical isolate at 30 ug/disk after 24 hr by disk diffusion method; details: read-out: DIZ
Bacillus cereus [18] = test: Antibacterial activity against Bacillus cereus ATCC 6633 at 1 ug/disk after 24 hr by disk diffusion method; details: ATCC 6633, 24 h, read-out: DIZ
Staphylococcus aureus [19] = test: Antibacterial activity against Staphylococcus aureus ATCC 25923 at 10 ug/disc after 24 hr by disk diffusion method; details: ATCC 25923, 24 h, read-out: DIZ
Candida albicans [20] = test: Antifungal activity against Candida albicans clinical isolate at 50 ug/disk after 48 hr by disk diffusion method; details: read-out: DIZ
Escherichia coli [21] = test: Antibacterial activity against Escherichia coli ATCC 27853 at 10 U/disk after 24 hr by disk diffusion method

Row | SMILES | zone of inhibition at 5000 µg/mL (Micrococcus flavus [2]) [mm] | MIC (Candida albicans [5]) [µg/mL] | MIC (Bacillus cereus [6]) [µg/mL] | MIC (Staphylococcus aureus [7]) [µg/mL] | zone of inhibition at 5000 µg/mL (Candida albicans [11]) [mm] | zone of inhibition at 5000 µg/mL (Bacillus cereus [12]) [mm] | MIC (Micrococcus flavus [14]) [µg/mL] | MIC (Morganella morganii [15]) [µg/mL] | MIC (Escherichia coli [16]) [µg/mL] | zone of inhibition at 5000 µg/mL (Escherichia coli [4]) [mm] | zone of inhibition at 5000 µg/mL (Staphylococcus aureus [13]) [mm] | further results
1 | O=C(N[C@H](CO)[C@H](O)c1ccc([N+](=O)[O-])cc1)C(Cl)Cl [CHLORAMPHENICOL] | – | – | – | – | – | – | – | – | – | – | – | zone of inhibition at 30 µg/disc (Morganella morganii [1]): 15 mm
2 | Fc1ccc(Cl)cc1Br | 32 | 2500 (≈ 11.9 mM) | 2500 (≈ 11.9 mM) | 2500 (≈ 11.9 mM) | 30 | 15 | 2500 (≈ 11.9 mM) | 2500 (≈ 11.9 mM) | 2500 (≈ 11.9 mM) | – | – | diameter of the inhibition zone (DIZ) (Morganella morganii [3]): inactive; diameter of the inhibition zone (DIZ) (Escherichia coli [4]): inactive; Ratio (Bacillus cereus [8]): 2; Ratio (Candida albicans [9]): 2; Ratio (Micrococcus flavus [10]): 2; diameter of the inhibition zone (DIZ) (Staphylococcus aureus [13]): inactive
3 | CN(C)[C@@H]1C(O)=C(C(N)=O)C(=O)[C@@]2(O)C(O)=C3C(=O)c4c(O)cccc4[C@@](C)(O)[C@H]3C[C@@H]12 [TETRACYCLINE] | – | – | – | – | – | – | – | – | – | – | – | zone of inhibition at 30 µg/disc (Micrococcus flavus [17]): 20 mm
4 | Fc1ccc(Cl)cc1I | 20 | 2500 (≈ 9.75 mM) | 2000 (≈ 7.8 mM) | 2000 (≈ 7.8 mM) | 14 | 16 | 1500 (≈ 5.85 mM) | 1500 (≈ 5.85 mM) | 3000 (≈ 11.7 mM) | 10 | 13 | zone of inhibition at 5000 µg/mL (Morganella morganii [3]): 10 mm
5 | Fc1cc(Cl)ccc1Br | 13 | 2500 (≈ 11.9 mM) | 2000 (≈ 9.55 mM) | 2500 (≈ 11.9 mM) | 11 | 17 | 2500 (≈ 11.9 mM) | 2500 (≈ 11.9 mM) | 3000 (≈ 14.3 mM) | 13 | 14 | diameter of the inhibition zone (DIZ) (Morganella morganii [3]): inactive
6 | Cc1onc(-c2ccccc2)c1C(=O)N[C@@H]1C(=O)N2[C@@H]1SC(C)(C)[C@@H]2C(=O)O [OXACILLIN] | – | – | – | – | – | – | – | – | – | – | – | zone of inhibition at 1 µg/disc (Bacillus cereus [18]): 9 mm
7 | CC1(C)S[C@@H]2[C@H](NC(=O)[C@H](N)c3ccccc3)C(=O)N2[C@H]1C(=O)O [AMPICILLIN] | – | – | – | – | – | – | – | – | – | – | – | zone of inhibition at 10 µg/disc (Staphylococcus aureus [19]): 9 mm
8 | Fc1cc(Cl)ccc1I | 11 | 2500 (≈ 9.75 mM) | 2000 (≈ 7.8 mM) | 2500 (≈ 9.75 mM) | 14 | 13 | 2500 (≈ 9.75 mM) | 2500 (≈ 9.75 mM) | 2500 (≈ 9.75 mM) | 11 | 12 | zone of inhibition at 5000 µg/mL (Morganella morganii [3]): 13 mm
9 | Fc1cc(Cl)ccc1Cl [2,5-DICHLOROFLUOROBENZENE] | 14 | 2000 (≈ 12.1 mM) | 2000 (≈ 12.1 mM) | 2500 (≈ 15.2 mM) | 17 | 16 | 2500 (≈ 15.2 mM) | 2500 (≈ 15.2 mM) | 3000 (≈ 18.2 mM) | 11 | 15 | zone of inhibition at 5000 µg/mL (Morganella morganii [3]): 12 mm
10 | CC(=O)N1CCN(c2ccc(OCC3COC(Cn4ccnc4)(c4ccc(Cl)cc4Cl)O3)cc2)CC1 (stereo unspecified) [KETOCONAZOLE] | – | – | – | – | – | – | – | – | – | – | – | zone of inhibition at 50 µg/disc (Candida albicans [20]): 16 mm
11 | Fc1ccc(Cl)cc1Cl [2,4-DICHLOROFLUOROBENZENE] | 11 | 1 (≈ 0.00606 mM) | 1500 (≈ 9.09 mM) | 1200 (≈ 7.27 mM) | 12 | 19 | 1500 (≈ 9.09 mM) | 1500 (≈ 9.09 mM) | 1200 (≈ 7.27 mM) | 12 | 15 | diameter of the inhibition zone (DIZ) (Morganella morganii [3]): inactive
12 | CC1(C)S[C@@H]2[C@H](NC(=O)Cc3ccccc3)C(=O)N2[C@H]1C(=O)O [PENICILLIN G] | – | – | – | – | – | – | – | – | – | – | – | diameter of the inhibition zone (DIZ) (Escherichia coli [21]): 19 mm
